Test results reported in patent publication US6335337B1, “Substituted piperazinones and their therapeutic uses” (Laboratoire L. Lafon, priority 1998, dated 2002).
Where a name gives a salt, the structure may show the parent alone.

How the values were obtained:
Guinea Pig Platelets = assay: In vitro inhibition of collagen-induced platelet aggregation, guinea pig platelet-rich plasma; assay type: cell-based; settings: guinea pig PRP, collagen 1 μg/ml, 3 minutes of contact at 37° C.
Protocol: A study of the inhibitory activity of the compounds of formula (I) on platelet aggregation was carried out in vitro, i.e. by direct contact of solutions of variable concentrations of the compounds with platelets freshly separated from a sample of total blood, taken under standardized conditions, from laboratory animals (guinea pigs) and from healthy human subjects who have not received any substances or drugs that might interfere with blood clotting. The anti-platelet-aggregating activity was also studied ex vivo/vitro, i.e. after administration of the substances claimed to guinea pigs to measure the intensity and duration of the anti-aggregating action induced by the fraction of the test product absorbed and circulating in the blood.
Blood is taken by intracardiac puncture from male Dunkin-Hartley guinea pigs (weighing about 330 g), at a rate of 4.5 ml per 0.5 ml of trisodium citrate (concentration of the aqueous solution: 1.55%;) in order to prevent all trace of clotting. The platelet-rich plasma (PRP) is obtained by centrifuging the tubes of total blood for 15 minutes at 150 g.
The PRPs are collected as “pools”. The platelets contained in these pools are counted using a Coulter ZM haematology automatic device: if necessary, a dilution is carried out in order for the platelet concentration in the plasma to be between 200000 and 400000 platelets/mm^3. Simultaneously, other samples of these pools serve to prepare the platelet-poor plasma (PPP) by centrifugation at 1500 g for 15 minutes.
The kinetic study of the platelet aggregation is carried out by adding a collagen solution (1 μg/ml) to a volume of PRP, using a Chrono-log Corporation aggregometer (490-D1, or 560 VS) which uses an optical detection of the appearance of the thrombus.
The determination of the 50%; inhibitory concentration (IC50) is carried out by adding a given volume of solvent (control reference) and increasing concentrations: 1.5×10^−8 M, 7×10^−8 M, 1.5×10^−7 M, 3×10^−7 M, 7×10^−7 M, 1.5×10^−6 M and […], of the compounds to samples of the pools of PRP. The measurements of the aggregation inhibition are carried out after 3 minutes of contact at 37° C. with agitation.

Human Platelets = assay: In vitro inhibition of collagen-induced platelet aggregation, human platelet-rich plasma; assay type: cell-based; settings: 0.05 h, human PRP, collagen 5 μg/ml, 3 minutes of contact at 37° C., read-out: IC50(M) in vitro Man
Protocol: A study of the inhibitory activity of the compounds of formula (I) on platelet aggregation was carried out in vitro, i.e. by direct contact of solutions of variable concentrations of the compounds with platelets freshly separated from a sample of total blood, taken under standardized conditions, from laboratory animals (guinea pigs) and from healthy human subjects who have not received any substances or drugs that might interfere with blood clotting. The anti-platelet-aggregating activity was also studied ex vivo/vitro, i.e. after administration of the substances claimed to guinea pigs to measure the intensity and duration of the anti-aggregating action induced by the fraction of the test product absorbed and circulating in the blood. Venous blood is taken from a group of ten healthy human subjects of the same age, by puncture into a vein of the fold of the elbow and is collected in a glass tube containing aqueous 0.129 M sodium citrate solution (1 volume of citrate solution per 9 volumes of blood). Each tube is then centrifuged a first time at 20° C. and 100 g for 15 minutes in order to obtain the platelet-rich plasma (PRP); after removing this PRP, the tube is again centrifuged at 2000 g for 15 minutes in order this time to remove the platelet-poor plasma (PPP). For each identified sample of PRP, the platelets are counted using a Coulter ZM counter. Each sample is then used to study the variation in inhibition of the platelet aggregation triggered by the addition of a Chromo-par-Reagent collagen glucose solution from Coultronics (used at a concentration of 5 μg/ml) as a function of the addition of increasing concentrations of each compound in a range covering the interval 10^-8 M→10^-5 M, (example of concentrations: 10^-8 […]). Beforehand, for each compound, an aqueous 10^-3 M solution is prepared. A control test intended to check the possible effect of the solvents (reference value) on the platelet aggregation is introduced into each measurement series, and the aggregation is measured after 3 minutes of contact at 37° C. with agitation. From the percentages of inhibition of the platelet aggregation measured for each concentration of each compound, the 50%; inhibitory concentration (IC50) is calculated.

[1] = Cavia porcellus, Platelet, 0.05 h

| SMILES | IC50 (Guinea Pig Platelets; [1]) | IC50 (Human Platelets) | IC50 (Guinea Pig Platelets) |
| --- | --- | --- | --- |
| CCOC(=O)[C@H](CNC(=O)CN1CCN(c2ccc(C(=N)N)cc2)CC1=O)NS(=O)(=O)c1ccccc1 [Example 17, ethyl (2S)-3-{[2-(4-{4-[amino(imino)methyl]phenyl}-2-oxopiperazino)acetyl]amino}-2-[(phenylsulphonyl)amino]propanoate acetate] | 110 nM | 1e-05 M |  |
| CCOC(=O)[C@H](CNC(=O)CN1CCN(c2ccc(C(=N)N)cc2)CC1=O)NS(=O)(=O)c1ccc2ccccc2c1 [Example 25, Ethyl (2S)-3-{[2-(4-{4-[amino(imino)methyl]phenyl}-2-oxopiperazino)acetyl]amino}-2-[(2-naphthylsulphonyl)amino]propanoate acetate] | 200 nM | 9.5e-05 M |  |
| CCOC(=O)[C@H](CNC(=O)CN1CCN(c2ccc(C(=N)N)cc2)CC1=O)NS(=O)(=O)c1ccc(C)cc1 [Example 23, Ethyl (2S)-3-{[2-(4-{4-[amino(imino)methyl]phenyl}-2-oxopiperazino)acetyl]amino}-2-{[4-toluenesulphonyl]amino}propanoate acetate] | 420 nM | 1.8e-05 M |  |
| N=C(N)c1ccc(N2CCN(CC(=O)NC[C@H](NS(=O)(=O)c3ccccc3)C(=O)O)C(=O)C2)cc1 [Example 30, (2S)-3-{[2-(4-{4-[amino(imino)methyl]phenyl}-2-oxopiperazino)acetyl]amino}-2-[(phenylsulphonyl)amino]propanoic acid hydrochloride] | 94 nM | 1.2e-07 M |  |
| CCOC(=O)[C@H](CNC(=O)CN1CCN(c2ccc(C(=N)N3CCCCC3)cc2)CC1=O)NS(=O)(=O)c1ccc(C)cc1 [Example 41, Ethyl (2S)-3-{[2-(4-{4-[imino(piperidino)methyl]phenyl}-2-oxopiperazino)acetyl]amino}-2-{[4-toluenesulphonyl]amino}propanoate] | 1600 nM |  |  |
| CCOC(=O)[C@H](CNC(=O)CN1CCN(c2ccc(C(=N)N)cc2)C(=O)C1)NS(=O)(=O)c1ccccc1 [Example 29, Ethyl (2S)-3-{[2-(4-{4-[amino(imino)methyl]phenyl}-3-oxopiperazino)acetyl]amino}-2-[(phenylsulphonyl)amino]propanoate acetate] | 1800 nM | 5.3e-06 M |  |
| CCOC(=O)[C@H](CNC(=O)CN1CCN(c2ccc(C(=N)N3CCOCC3)cc2)CC1=O)NS(=O)(=O)c1ccc(C)cc1 [Example 40] |  |  | 1000 nM |
| CCOC(=O)[C@H](CNC(=O)CN1CCN(c2ccc(C(=N)N)cc2)CC1=O)NS(=O)(=O)c1cccc2c1NCCC2 [Example 19, Ethyl (2S)-3-{[2-(4-{4-[amino(imino)methyl]phenyl}-2-oxopiperazino)acetyl]amino}-2-[(1,2,3,4-tetrahydro-8-quinolinylsulphonyl)amino]propanoate acetate] | 250 nM | 8.2e-06 M |  |
| CCOC(=O)[C@H](CNC(=O)CN1CCN(c2ccc(C(=N)N)cc2)CC1=O)NS(=O)(=O)c1cccnc1 [Example 18, Ethyl (2S)-3-{[2-(4-{4-[amino(imino)methyl]phenyl}-2-oxopiperazino)acetyl]amino}-2-[(3-pyridylsulphonyl)amino]propanoate diacetate] | 910 nM | 3.2e-05 M |  |
| Cc1ccc(S(=O)(=O)N[C@@H](CNC(=O)CN2CCN(c3ccc(C(=N)N)cc3)CC2=O)C(=O)O)cc1 [Example 31, (2S)-3-{[2-(4-{4-[Amino(imino)methyl]phenyl}-2-oxopiperazino)acetyl]amino}-2-{[4-toluenesulphonyl]amino}propanoic acid hydrochloride] | 310 nM | 3.4e-07 M |  |
| CCOC(=O)[C@H](CNC(=O)CN1CCN(c2ccc(C(=N)N)cc2)CC1=O)NC(=O)OCC(C)C [Example 26, Ethyl (2S)-3-{[2-(4-{4-[amino(imino)methyl]phenyl}-2-oxopiperazino)acetyl]amino}-2-[(isobutoxycarbonyl)amino]propanoate acetate] | 400 nM | 5.7e-06 M |  |
| CCOC(=O)[C@H](CNC(=O)CN1CCN(c2ccc(C(=N)N)cc2)CC1=O)NS(=O)(=O)c1ccc(Cl)cc1 [Example 24, Ethyl (2S)-3-{[2-(4-{4-[amino(imino)methyl]phenyl}-2-oxopiperazino)acetyl]amino}-2-{[(4-chlorophenyl)sulphonyl]amino}propanoate acetate] | 320 nM | 9.3e-06 M |  |
